According to US20240415918A1, “Polypeptide and its use as a CCK receptor agonist/antagonist” (Centre for Regenerative Medicine & Health, Hong Kong …, priority 2021, published 2024):
Where a SMILES comes first, the peptide text is derived from it. Where no end group is shown, it is not given here. [ ]: non-standard residue; d: D form. The star is where a group is joined. NMeW = CN[C@@H](Cc1c[nH]c2ccccc12)C(=O)O; Phe(3-Br) = N[C@@H](Cc1cccc(Br)c1)C(=O)O; dNMeW = CN[C@H](Cc1c[nH]c2ccccc12)C(=O)O; Fmoc = O=C(OCC1c2ccccc2-c2ccccc21)*; Aad = N[C@@H](CCCC(=O)O)C(=O)O; Nle = CCCC[C@H](N)C(=O)O

Target: T1, CCK-B receptors (CHO-CCK) (Homo sapiens, UniProt P32239)
T1 construct: expressed in transfected cells; host or cells: CHO (CHO-CCK model cells)
T1 sequence (P32239 1-447): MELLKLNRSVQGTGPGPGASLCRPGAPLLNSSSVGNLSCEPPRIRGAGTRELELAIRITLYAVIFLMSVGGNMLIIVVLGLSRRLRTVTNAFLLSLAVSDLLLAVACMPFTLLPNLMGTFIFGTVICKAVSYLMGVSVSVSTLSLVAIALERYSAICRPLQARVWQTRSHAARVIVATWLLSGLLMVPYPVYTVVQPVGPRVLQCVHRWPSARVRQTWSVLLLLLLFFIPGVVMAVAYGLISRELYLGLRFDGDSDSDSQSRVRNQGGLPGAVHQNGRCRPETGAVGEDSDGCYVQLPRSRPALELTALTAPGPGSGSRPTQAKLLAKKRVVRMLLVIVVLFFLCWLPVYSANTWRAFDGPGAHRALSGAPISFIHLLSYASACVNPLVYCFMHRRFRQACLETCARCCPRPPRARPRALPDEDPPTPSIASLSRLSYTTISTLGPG
Experiment: Calcium flux (Fluo-8) agonist test on CHO-CCK model cells
Type: cell-based
Settings: for Agonistic Activity (%) at 10 μM: compound at 10 μM, percentage of signal of 20 nM CCK8 alone; for % Act-Ave @ 1 nM: compound at 1 nM; for % Act-Ave @ 1 nM / % Act-Ave @ 50 nM / EC50: CHO-CCK cells; for % Act-Ave @ 50 nM: compound at 50 nM
Outline: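 Agonist-mode Fluo-8 calcium flux read on CHO-CCK cells after dye loading 30 min at 37 °C plus 30 min at room temperature.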

[1] = Fluo-8 calcium flux, 100% control = 20 nM CCK8

Compound: COC(=O)C[C@H](NC(=O)[C@H](CCS(C)(=O)=O)NC(=O)[C@H](N)Cc1c[nH]c2ccccc12)C(=O)N[C@@H](Cc1cccc(Cl)c1)C(N)=O [HT-128, D-Trp-Met(O2)-Asp(Ome)-Phe(3-Cl)-NH2]
- Agonistic Activity (%) at 10 μM: 0.73%

Compound: COC(=O)C[C@H](NC(=O)[C@H](CCS(C)(=O)=O)NC(=O)[C@H](N)Cc1c[nH]c2ccccc12)C(=O)N[C@@H](Cc1cccc(C)c1)C(N)=O [HT-130, D-Trp-Met(O2)-Asp(Ome)-Phe(3-I)-NH2]
- Agonistic Activity (%) at 10 μM: 0.86%

Compound: COC(=O)C[C@H](NC(=O)[C@H](CCSC)NC(=O)[C@H](N)Cc1c[nH]c2ccccc12)C(=O)N[C@@H](Cc1cc(F)c(F)c(F)c1)C(N)=O [HT-91, D-Trp-Met-Asp(Ome)-Phe(3,4,5-TriF)-NH2]
- Agonistic Activity (%) at 10 μM: 3.12%

Compound: CCCC[C@H](NC(=O)[C@@H](Cc1c[nH]c2ccccc12)N(C)C(C)=O)C(=O)N[C@@H](CCCC(=O)O)C(=O)N[C@@H](Cc1cccc(Br)c1)C(N)=O [HT-270, Ac-D-Trp-Nle-Aa-Phe(3-Br)-NH2] (Ac-[dNMeW][Nle][Aad][Phe(3-Br)]-NH2)
- % Act-Ave @ 1 nM: −0.03%
- % Act-Ave @ 50 nM: 80.85%

Compound: CCCC[C@H](NC(=O)[C@H](Cc1c[nH]c2ccccc12)N(C)C(=O)OCC1c2ccccc2-c2ccccc21)C(=O)N[C@@H](CC(=O)O)C(=O)N[C@@H](Cc1cccc(Br)c1)C(N)=O [HT-199, Fmoc-(N-Me-Trp)-Nle-Asp-Phe(3-Br)-NH2] (Fmoc-[NMeW][Nle]D[Phe(3-Br)]-NH2)
- EC50 [1]: 0.00147 µM

Compound: CS(=O)(=O)CC[C@H](NC(=O)[C@H](N)Cc1c[nH]c2ccccc12)C(=O)N[C@@H](CC(=O)O)C(=O)N[C@@H](Cc1ccc(C#N)cc1)C(N)=O [HT-66, D-Trp-Met(O2)-Asp-Phe(4-CN)-NH2]
- Agonistic Activity (%) at 10 μM: 0.33%

Compound: C[S+]([O-])CC[C@H](NC(=O)[C@H](N)Cc1c[nH]c2ccccc12)C(=O)N[C@@H](CC(=O)OCCNc1cccc2c(O)cccc12)C(=O)N[C@@H](Cc1cccc(Cl)c1)C(N)=O (stereo partly drawn) [HT-145, D-Trp-Met(O)t-Asp(EDANS)-Phe(3-Cl)-NH2]
- Agonistic Activity (%) at 10 μM: −5.52%

Compound: CSCC[C@@H](NC(=O)[C@@H](CC(=O)O)NC(=O)[C@@H](Cc1ccccc1)NC(C)=O)C(=O)N[C@H](Cc1c[nH]c2ccccc12)C(N)=O [HT-8, Ac-D-Phe-D-Asp-D-Met-D-Trp-NH2] (Ac-[dF][dD][dM][dW]-NH2)
- EC50 (compound alone, bound in μM): > 10 µM

Compound: CS(=O)(=O)CC[C@H](NC(=O)[C@H](N)Cc1c[nH]c2ccccc12)C(=O)N[C@@H](CC(=O)O)C(=O)N[C@@H](Cc1ccccc1[N+](=O)[O-])C(N)=O [HT-58, D-Trp-Met(O2)-Asp-Phe(2-NO2)-NH2]
- Agonistic Activity (%) at 10 μM: 23.63%

Compound: CS(=O)(=O)CC[C@H](NC(=O)[C@H](N)Cc1c[nH]c2ccccc12)C(=O)N[C@@H](CC(=O)O)C(=O)N[C@@H](Cc1ccc([N+](=O)[O-])cc1)C(N)=O [HT-67, D-Trp-Met(O2)-Asp-Phe(4-NO2)-NH2]
- Agonistic Activity (%) at 10 μM: −1.49%

Compound: CSCC[C@H](NC(=O)[C@@H](CC(=O)O)NC(=O)[C@H](Cc1ccccc1)NC(C)=O)C(=O)N[C@@H](Cc1c[nH]c2ccccc12)C(=O)O [HT-4, Ac-Phe-D-Asp-Met-Trp-NH2]
- EC50 (compound alone, bound in μM): > 10 µM

Compound: CSCC[C@@H](NC(=O)[C@H](CC(=O)O)NC(=O)[C@H](Cc1ccccc1)NC(C)=O)C(=O)N[C@@H](Cc1c[nH]c2ccccc12)C(=O)O [HT-5, Ac-Phe-Asp-D-Met-Trp-NH2]
- EC50 (compound alone, bound in μM): > 10 µM

Compound: CSCC[C@H](NC(=O)[C@H](CC(=O)O)NC(=O)[C@H](Cc1ccccc1)NC(C)=O)C(=O)N[C@@H](Cc1c[nH]c2ccccc12)C(=O)O [HT-3, Ac-Phe-Asp-Met-Trp-NH2]
- EC50 (compound alone, bound in μM): > 10 µM

Compound: COC(=O)C[C@H](NC(=O)[C@H](CCS(C)(=O)=O)NC(=O)[C@H](N)Cc1c[nH]c2ccccc12)C(=O)N[C@@H](Cc1cc(F)cc(F)c1)C(N)=O [HT-141, D-Trp-Met(O2)-Asp(Ome)-Phe(3,5-DiF)-NH2]
- Agonistic Activity (%) at 10 μM: 5.60%

Compound: CC(=O)N[C@@H](CC(=O)O)C(=O)N[C@@H](Cc1ccccc1)C(N)=O [HT-284, Ac-Asp-Phe-NH2] (Ac-Asp-Phe-NH2)
- % Act-Ave @ 1 nM: 0.01%
- % Act-Ave @ 50 nM: 0.09%

Compound: COC(=O)C[C@H](NC(=O)[C@H](CCS(C)(=O)=O)NC(=O)[C@H](N)Cc1c[nH]c2ccccc12)C(=O)N[C@@H](Cc1ccc(C#N)cc1)C(N)=O [HT-134, D-Trp-Met(O2)-Asp(Ome)-Phe(4-CN)-NH2]
- Agonistic Activity (%) at 10 μM: 11.25%

Compound: Cc1ccc(C[C@H](NC(=O)[C@H](CC(=O)O)NC(=O)[C@H](CCS(C)(=O)=O)NC(=O)[C@H](N)Cc2c[nH]c3ccccc23)C(N)=O)cc1 [HT-64, D-Trp-Met(O2)-Asp-Phe(4-Me)-NH2]
- Agonistic Activity (%) at 10 μM: 17.43%

Compound: CSCC[C@H](NC(C)=O)C(=O)N[C@@H](CC(=O)O)C(=O)N[C@@H](Cc1ccccc1)C(N)=O [HT-280, Ac-Met-Asp-Phe-NH2] (Ac-Met-Asp-Phe-NH2)
- % Act-Ave @ 1 nM: −0.33%
- % Act-Ave @ 50 nM: −0.16%

Compound: HHHHHHSSGGDYMGWKDF-NH2 [HT-287]
- % Act-Ave @ 1 nM: 77.83%
- % Act-Ave @ 50 nM: 99.10%

Compound: C[S+]([O-])CC[C@H](NC(=O)[C@H](N)Cc1c[nH]c2ccccc12)C(=O)N[C@@H](CC(=O)O)C(=O)N[C@@H](Cc1ccccc1[N+](=O)[O-])C(N)=O (stereo partly drawn) [HT-41, D-Trp-Met(O)-Asp-Phe(2-NO2)-NH2]
- Agonistic Activity (%) at 10 μM: −11.17%

Compound: COC(=O)C[C@H](NC(=O)[C@H](CCS(C)(=O)=O)NC(=O)[C@H](N)Cc1c[nH]c2ccccc12)C(=O)N[C@@H](Cc1ccc(Br)cc1)C(N)=O [HT-136, D-Trp-Met(O2)-Asp(Ome)-Phe(4-Br)-NH2]
- Agonistic Activity (%) at 10 μM: 2.69%

Compound: CSCC[C@H](NC(C)=O)C(=O)N[C@@H](CC(=O)O)C(=O)N[C@@H](Cc1cccc(Br)c1)C(N)=O [HT-282, Ac-Met-Asp-Phe(3-Br)-NH2] (Ac-Met-Asp-[Phe(3-Br)]-NH2)
- % Act-Ave @ 1 nM: 0.13%
- % Act-Ave @ 50 nM: 0.45%

Compound: CSCC[C@@H]1NC(=O)[C@H](Cc2c[nH]c3ccccc23)NCCC(=O)CNC(=O)CNC(=O)CNC(=O)CNC(=O)[C@H](Cc2cccc(Br)c2)NC(=O)[C@H](CC(=O)O)NC1=O [HT-291, cyclo(Trp-Met-Asp-Phe(3-Br)-Gly-Gly-Gly-Gly)]
- EC50 [1]: 10.6 µM

Compound: COC(=O)C[C@H](NC(=O)[C@H](CC[S+](C)[O-])NC(=O)[C@H](N)Cc1c[nH]c2ccccc12)C(=O)N[C@@H](Cc1cccc(Cl)c1)C(N)=O (stereo partly drawn) [HT-111, D-Trp-Met(O)-Asp(Ome)-Phe(3-Cl)-NH2]
- Agonistic Activity (%) at 10 μM: −7.28%

Compound: CCCC[C@H](NC(=O)[C@H](Cc1c[nH]c2ccccc12)N(C)C(C)=O)C(=O)N[C@@H](CC(=O)O)C(=O)N[C@@H](Cc1cccc(Br)c1)C(N)=O [HT-269, Ac-(N-Me-Trp)-Nle-Asp-Phe(3-Br)-NH2] (Ac-[NMeW][Nle]D[Phe(3-Br)]-NH2)
- % Act-Ave @ 1 nM: 0.05%
- % Act-Ave @ 50 nM: 33.52%

Compound: COC(=O)C[C@H](NC(=O)[C@H](CCS(C)(=O)=O)NC(=O)[C@H](N)Cc1c[nH]c2ccccc12)C(=O)N[C@@H](Cc1cccc(Br)c1)C(N)=O [HT-131, D-Trp-Met(O2)-Asp(Ome)-Phe(3-Br)-NH2]
- Agonistic Activity (%) at 10 μM: 5.87%
